Assay results from article PMC5438088 (ChemMedChem, 2015).
“And” between values parts separate entries of the source, which are not always exact repeats. Equal values may be shown once. Read-outs that look alike come from different tables or passages of the source. Values belong to the compound of their own block, whether it stands above or below them.

How the values were obtained:
SHMT = details: cited from earlier work
hcSHMT [1] = target: T1, hcSHMT (Homo sapiens, UniProt P34896); test: Isothermal titration calorimetry; format: binding; details: ITC, 25°C, 10 mM glycine
T1 sequence (P34896 1-483): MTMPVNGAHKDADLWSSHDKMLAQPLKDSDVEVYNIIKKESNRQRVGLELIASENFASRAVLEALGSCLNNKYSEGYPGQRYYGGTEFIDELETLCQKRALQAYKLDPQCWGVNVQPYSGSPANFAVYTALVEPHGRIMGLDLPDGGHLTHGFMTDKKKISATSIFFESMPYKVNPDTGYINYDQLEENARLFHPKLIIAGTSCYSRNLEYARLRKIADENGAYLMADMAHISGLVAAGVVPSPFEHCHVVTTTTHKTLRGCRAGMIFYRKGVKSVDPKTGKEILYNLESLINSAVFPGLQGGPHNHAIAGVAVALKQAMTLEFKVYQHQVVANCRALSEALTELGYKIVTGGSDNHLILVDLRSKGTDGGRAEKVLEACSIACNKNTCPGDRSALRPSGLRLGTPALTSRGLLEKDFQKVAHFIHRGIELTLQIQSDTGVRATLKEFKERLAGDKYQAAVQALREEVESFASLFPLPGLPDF

hcSHMT [2] = target: T1, hcSHMT; format: binding

SMILES: CC1(C)N=C(N)N=C(N)N1c1ccc(CCCCc2ccc(S(=O)(=O)F)cc2Cl)c(Cl)c1.CCS(=O)(=O)O [NSC127755]
inhibition of SHMT (SHMT): irreversible inhibitor

SMILES: Nc1nc2[nH]cc(CCc3ccc(C(=O)N[C@@H](CCC(=O)O)C(=O)O)cc3)c2c(=O)[nH]1 [Pemetrexed, (S)-2-[4-[2-(4-amino-2-oxo-3,5,7-triazabicyclo[4.3.0]nona-3,8,10-trien-9-yl)ethyl]benzoyl] aminopentanedioic acid]
inhibition of hcSHMT (SHMT; hcSHMT): low micromolar inhibitor

SMILES: Nc1nc2c(c(=O)[nH]1)C[C@@H](CCc1ccc(C(=O)N[C@@H](CCC(=O)O)C(=O)O)cc1)CN2 [Lometrexol]
ΔH (heat of binding) (hcSHMT [1]): 3.50 ± 0.06 kcal/mol
ΔS (hcSHMT [1]): 38.0 cal mol^−1/deg
n (binding stoichiometry) (hcSHMT [1]; listed as LTX): 0.53±0.05
Kd (hcSHMT [1]): 2000 nM and 1990 nM
inhibition mechanism (hcSHMT [2]; with respect to leucovorin, double reciprocal plot): competitive inhibitor

n (binding stoichiometry) (hcSHMT [1]): 0.51±0.03
ΔH (heat of binding) (hcSHMT [1]): 4.64 ± 0.39 kcal/mol
ΔS (hcSHMT [1]): 42.4 cal mol^−1/deg
Kd (hcSHMT [1]): 1360 ± 490 nM
Kd (hcSHMT [2]): 1500 nM
SMILES: Nc1nc2c(c(=O)[nH]1)N(C=O)C(CNc1ccc(C(=O)N[C@@H](CCC(=O)O)C(=O)O)cc1)CN2 (stereo partly shown) [Leucovorin, 5-formyltetrahydrofolate]
inhibition of SHMT (SHMT; both SHMT isoforms): potent, low-micromolar inhibitor
